Test results taken from patent US9918983B2, “Suicidal LSD1 inhibitors targeting SOX2-expressing cancer cells” (THE BOARD OF REGENTS OF THE NEVADA SYSTEM OF HIGHER …, priority 2013, dated 2018).

Experiments:
G401 cells = experiment: Cell growth/viability (MTT, microscopy); assay type: cell-based, human; conditions: 50 μM, 30 hours
Protocol: (§1) Lung, breast, ovarian, and other carcinoma cells were either obtained from American Type Culture Collection (ATCC) or from the DTP and DCTD Tumor Repository of National Cancer Institute (the NCI-60 cancer cell line panel), operated by Charles River Laboratory, Inc., as listed in Table 1. They were cultured according to instructions and treated with various concentrations of LSD1 inhibitors for 30-36 hours for mRNA analysis by quantitative real time RT-PCR or for 30-48 hours for protein analysis and the cell viability assays using Western blotting or microscopy and MTT assays as described previously (Wang, J., et al. (2011) Cancer Research 71, 7238-7249).
Alternatively, cell viability assays were conducted as previously described (Wang, J., et al. (2011) Cancer Research 71, 7238-7249). […] After removing the medium, 200 μL DMSO was added to dissolve formazan, followed by incubation for 10 minutes, and absorbance was measured at 490 nm by a Bio Red microplate reader. […] The cell viability rate was calculated as the relative percentage of MTT absorption as follows: % cell viability=(mean experimental absorbance/mean control absorbance)×100.
Referring to FIG. 10B, Sox2-expressing myelogenous leukemia and rhabdoid tumor cells were also sensitive to LSD1 inhibitors. […] The statistical differences between compound treated and control groups were analyzed by One-way ANOVA. *: p<0.05 and **: p<0.01.

HS38.T cells = experiment: Cell growth/viability (MTT, microscopy); assay type: cell-based, human; conditions: 50 μM, 30 hours
Protocol: as §1
(§2) Alternatively, cell viability assays were conducted as previously described (Wang, J., et al. (2011) Cancer Research 71, 7238-7249). For the MTT assay, cells were seeded onto 96-well culture plates with a density of 2000-5000 cells/well, and incubated with CBB1003 or CBB1007 at various concentrations from 1 to 100 μM for 30-48 hours, depending cell growth rate. Dimethylsulfoxide (DMSO) was used as a solvent control. MTT was added to a final concentration of 0.5 mg/mL and cells were re-incubated for 4 hours. After removing the medium, 200 μL DMSO was added to dissolve formazan, followed by incubation for 10 minutes, and absorbance was measured at 490 nm by a Bio Red microplate reader. All assays were performed in triplicates for each concentration. The cell viability rate was calculated as the relative percentage of MTT absorption as follows: % cell viability=(mean experimental absorbance/mean control absorbance)×100.

SKOV-3 cells = experiment: Cell growth/viability (MTT, microscopy); assay type: cell-based, human; conditions: 50 μM, 30 hours
Protocol: as §1, §2

SK-BR-3 cells = experiment: Cell growth/viability (MTT, microscopy); assay type: cell-based, human; conditions: 50 μM, 30 hours
Protocol: as §1, §2

MCF7 cells = experiment: Cell growth/viability (MTT, microscopy); assay type: cell-based, human; conditions: 50 μM, 30 hours
Protocol: as §1, §2

BT-549 cells = experiment: Cell growth/viability (MTT, microscopy); assay type: cell-based, human; conditions: BT549 cells, 50 μM, 30 hours
Protocol: as §1, §2

IGROV-1 cells = experiment: Cell growth/viability (MTT, microscopy); assay type: cell-based, human; conditions: 50 μM, 30 hours
Protocol: as §1, §2

[1] = molecular target: T1, LSD1-CoREST-HDAC1 complex (Homo sapiens, UniProt O60341+Q13547); experiment: Reconstituted LSD1-CoREST-HDAC1 complex on oligonucleosomes; assay type: biochemical; conditions: 50 μM CBB1007 or 2 μM MS-275
T1 construct: Human LSD1 and HDAC1 full-length cDNAs were obtained from Open Biosystems; GST (N, cleaved yes); made in house; host or cells: Escherichia coli BL21
Protocol: For the reconstitution reaction, recombinant GST-CoREST, His-LSD1, and recombinant HDAC1 (rHDAC1) (GST was removed by the use of PreScission protease) (10 μg) were assembled into the LSD1-CoREST-HDAC1 complex and then pulled down by GSTSepharose resins. Protein A-Sepharose was used as a negative-control resin.
Briefly, cells (1×10^6) were washed twice with ice-cold hypotonic buffer (20 mM potassium-HEPES, pH 7.8, 5 mM potassium acetate, 0.5 mM MgCl2, 0.5 mM DTT), swelled, and disrupted with 25 strokes in a Dounce homogenizer using a tightfitting pestle. Nuclei were pelleted at 4,000 rpm for 5 min and resuspended in buffer A (20 mM HEPES, pH 7.9, 1.5 mM magnesium acetate, 50 mM potassium acetate, 10% glycerol, 0.5 mM DTT, 150 mM NaCl, protease and phosphatase inhibitors). […] The chromatin pellet was resuspended in 0.5 mL buffer B (0.32 M sucrose, 50 mM Tris-HCl, pH 7.5, 4 mM MgCl2, 1 mM CaCl2, 0.1 mM phenylmethylsulfonyl fluoride) and incubated with 30 units of micrococcal nuclease for 10 min at 37° C. The digested samples were centrifuged at 8,000×g for 10 min, and the supernatant, which contained oligonucleosomes, was recovered.
The reaction products (demethylated or deacetylated histones) were analyzed by Western blotting.

Sox2 = Sox2 protein level by western blotting in carcinoma cells; assay type: cell-based, human; parameters: dose or concentration left out as unconfirmed; conditions: indicated carcinoma cells, 30 hr
Text: Log-phase growing cancer cells were directly lysed in a buffer containing 0.5% SDS. Proteins in the lysates were equalized and analyzed by Western blotting using antibodies against Sox2, LSD1, H3K4Me1, H3K4Me2, Oct4, and other proteins as described previously or in the figure descriptions (Wang, J., et al. (2011) Cancer Research 71, 7238-7249). For immunohistochemical staining, rabbit monoclonal anti-LSD1 (clone C69G12, cat. #2184) and anti-Sox2 (clone D6D9, cat. #3579) antibodies were obtained from Cell Signaling. Rabbit anti-Sox2 polyclonal antibodies were raised using the purified GST-Sox2 fusion protein as the antigen.
Referring to FIG. 11A, inactivation of LSD1 by LSD1 inhibitors or siRNAs caused the downregulation of Sox2. The indicated carcinoma cells were treated with […] of the LSD1 inhibitors CBB1007 and CBB1003 for 30 hr or with 50 nM of Luc or LSD1 siRNAs for 60 hr. The protein levels of LSD1, Sox2, Lin28, CUL1, and histone H3 were analyzed by western blotting.

HDAC1-protein A complex = molecular target: T2, HDAC1-protein A complex (Mus musculus, UniProt O09106); experiment: In vitro deacetylation assay, immunoaffinity-purified HDAC1-protein A complex from F9 cells; assay type: biochemical; conditions: H4K16ac peptide; 50 μM CBB1007 or 2 μM MS-275
T2 construct: 1 μg immunoprecipitated endogenous HDAC1-protein A complexes; endogenous in cells; host or cells: F9 mouse teratocarcinoma cells, anti-HDAC1 immunoprecipitate on protein A-Sepharose
Protocol: (§3) The immunocomplexes were captured by protein A-Sepharose. Isolated LSD1-protein A or HDAC1-protein A complexes were verified by Western blotting with LSD1 and HDAC1 antibodies.
(§4) The percentages of deacetylated products were analyzed by mass spectrometry, and the data were analyzed by GraphPad Prism (version 5) software.

[2] = molecular target: T3, recombinant HDAC1 (GST-HDAC1) (Homo sapiens, UniProt Q13547); experiment: In vitro deacetylation assay, recombinant HDAC1, H4K16ac peptide; assay type: biochemical; conditions: LSD1 and HDAC1 without CoREST
T3 construct: Human LSD1 and HDAC1 full-length cDNAs were obtained from Open Biosystems; GST (N, cleaved yes); made in house; host or cells: Escherichia coli BL21
T3 sequence (Q13547 whole entry): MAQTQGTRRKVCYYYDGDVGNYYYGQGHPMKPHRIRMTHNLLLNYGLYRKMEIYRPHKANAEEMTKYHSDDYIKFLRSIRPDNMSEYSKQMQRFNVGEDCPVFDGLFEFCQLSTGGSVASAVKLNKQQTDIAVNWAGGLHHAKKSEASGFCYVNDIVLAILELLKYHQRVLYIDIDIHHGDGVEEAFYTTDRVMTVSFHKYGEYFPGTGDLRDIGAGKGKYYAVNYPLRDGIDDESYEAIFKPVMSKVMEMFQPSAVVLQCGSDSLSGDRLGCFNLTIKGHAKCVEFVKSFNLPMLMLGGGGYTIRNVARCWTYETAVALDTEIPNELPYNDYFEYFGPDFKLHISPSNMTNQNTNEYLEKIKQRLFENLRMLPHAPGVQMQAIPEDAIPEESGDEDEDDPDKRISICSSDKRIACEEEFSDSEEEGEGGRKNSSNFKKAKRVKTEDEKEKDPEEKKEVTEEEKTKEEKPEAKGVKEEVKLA
Text: Human LSD1 and HDAC1 full-length cDNAs were obtained from Open Biosystems. […] These cDNAs were fully sequenced and cloned into the pGEX-KG or pET28a vector and expressed as the glutathione S-transferase (GST)- or His-tagged fusion proteins in the Escherichia coli BL21 strain and affinity purified with glutathione or Ni-Sepharose (GE Healthcare, United Kingdom) resin. […] The GST tag and uncut GST-HDAC1/GST-LSD1 proteins were depleted by glutathione-Sepharose. For the reconstitution reaction, recombinant GST-CoREST, His-LSD1, and recombinant HDAC1 (rHDAC1) (GST was removed by the use of PreScission protease) (10 μg) were assembled into the LSD1-CoREST-HDAC1 complex and then pulled down by GSTSepharose resins. Protein A-Sepharose was used as a negative-control resin.
as §4

LSD1-protein A complex = molecular target: T4, LSD1-protein A complex (Mus musculus, UniProt Q6ZQ88); experiment: In vitro demethylation assay, immunoaffinity-purified LSD1-protein A complex from F9 cells; assay type: biochemical; conditions: dimethylated H3K4 peptide; 50 μM CBB1007 or 2 μM MS-275
T4 construct: recombinant and endogenous LSD1 complexes isolated from F9 cells; endogenous in cells; host or cells: F9 mouse teratocarcinoma cells, anti-LSD1 immunoprecipitate on protein A-Sepharose
Protocol: as §3, §4

COC(=O)c1cc(CN2CCN(C(=N)N)CC2)cc(C(=O)N2CCN(C(=O)c3ccc(C(=N)N)cc3)CC2)c1 [CBB1007]
cell growth (G401 cells): inhibited
cell growth (HS38.T cells): not sensitive
cell growth (SKOV-3 cells): sensitive
cell growth (SK-BR-3 cells): not sensitive
cell growth (MCF7 cells): sensitive
cell growth (BT-549 cells): not sensitive
cell growth (IGROV-1 cells): sensitive
HDAC1 deacetylase activity in the reconstituted complex [1]: partial inhibition of the HDAC1 deacetylase activity
LSD1 demethylase activity in the reconstituted complex [1]: inhibited the activity of LSD1 demethylase
Sox2 protein level (Sox2): downregulation
deacetylase activity of immunoaffinity-purified HDAC1 (HDAC1-protein A) (HDAC1-protein A complex): sufficient to inhibit the deacetylase activity
HDAC1 activity in the absence of CoREST [2]: not inhibited
demethylation activity of immunoaffinity-purified LSD1 (LSD1-protein A) (LSD1-protein A complex): sensitive
